≈ marks a conversion by molar mass, not a printed value. Calls of active or inactive are those of the source. No cut-off for these calls is given here.
What was measured:
[1] = Acute toxicity in female BALB/c mouse assessed as effect on lung at 800 mg/kg, po measured after 14 days by H and E staining based analysis; assay type: organism-based; details: in vivo, 336 h, time 14 day
Staphylococcus aureus [2] = experiment: In vivo antibacterial activity against methicilin-resistant Staphylococcus aureus ATCC33591 infected in BALB/c mouse skin infection model assessed as decrease in lesion size at 10 mg/kg administered daily for 4 days (reference value: 43.4 mm2); assay type: functional; details: time 4 day
Staphylococcus aureus [3] = experiment: In vivo antibacterial activity against methicilin-resistant Staphylococcus aureus ATCC33591 infected in BALB/c mouse skin infection model assessed as log reduction in bacterial count at 10 mg/kg administered daily for 4 days; assay type: functional; details: time 4 day
Staphylococcus aureus [4] = experiment: In vivo antibacterial activity against methicilin-resistant Staphylococcus aureus ATCC33591 infected in BALB/c mouse skin infection model assessed as damaged tissue at 10 mg/kg administered daily for 4 days by H and E staining based analysis; assay type: functional, organism-based; details: time 4.0 day
Staphylococcus aureus [5] = experiment: In vivo antibacterial activity against methicilin-resistant Staphylococcus aureus ATCC33591 infected in BALB/c mouse skin infection model assessed as reduction in number of inflammatory cells at 20 mg/kg administered daily for 4 days by H and E staining based analysis; assay type: functional, organism-based; details: time 4.0 day
[6] = Acute toxicity in female BALB/c mouse assessed as effect on kidney at 800 mg/kg, po measured after 14 days by H and E staining based analysis; assay type: organism-based; details: in vivo, 336 h, time 14 day
Staphylococcus aureus [7] = experiment: In vivo antibacterial activity against methicilin-resistant Staphylococcus aureus ATCC33591 infected in BALB/c mouse skin infection model assessed as decrease in lesion size at 5 mg/kg administered daily for 4 days (reference value: 43.4 mm2); assay type: functional; details: time 4 day
Staphylococcus aureus [8] = experiment: In vivo antibacterial activity against methicilin-resistant Staphylococcus aureus ATCC33591 infected in BALB/c mouse skin infection model assessed as decrease in lesion size at 20 mg/kg administered daily for 4 days (reference value: 43.4 mm2); assay type: functional; details: time 4 day
Staphylococcus aureus [9] = experiment: In vivo antibacterial activity against methicilin-resistant Staphylococcus aureus ATCC33591 infected in BALB/c mouse skin infection model assessed as restoration of cell morphology at 20 mg/kg administered daily for 4 days by H and E staining based analysis; assay type: functional, organism-based; details: time 4.0 day
Staphylococcus aureus [10] = experiment: Antimicrobial activity against […] Staphylococcus aureus ATCC43300 measured after 24 hrs by CLSI protocol based microdilution method; assay type: functional
Staphylococcus aureus [11] = experiment: In vivo antibacterial activity against methicilin-resistant Staphylococcus aureus ATCC33591 infected in BALB/c mouse skin infection model assessed as reduction in bacterial load at 20 mg/kg administered daily for 4 days; assay type: functional; details: time 4 day
Staphylococcus aureus [12] = experiment: In vivo antibacterial activity against methicilin-resistant Staphylococcus aureus ATCC33591 infected in BALB/c mouse skin infection model assessed as reduction in bacterial load at 5 mg/kg administered daily for 4 days; assay type: functional; details: time 4 day
[13] = Acute toxicity in female BALB/c mouse assessed as effect on body weight at 800 mg/kg, po measured after 14 days; assay type: organism-based; details: in vivo, 336 h, time 14 day
Staphylococcus aureus [14] = experiment: In vivo antibacterial activity against methicilin-resistant Staphylococcus aureus ATCC33591 infected in BALB/c mouse skin infection model assessed as as appearance of inflammatory cell infiltrates at 10 mg/kg administered daily for 4 days by H and E staining based analysis; assay type: functional, organism-based; details: time 4.0 day
Staphylococcus aureus [15] = experiment: In vivo antibacterial activity against methicilin-resistant Staphylococcus aureus ATCC33591 infected in BALB/c mouse skin infection model assessed as effect on body weight loss at 5 to 20 mg/kg administered daily for 4 days; assay type: functional, organism-based; details: dose 5-20 mg/kg, time 4.0 day
Staphylococcus aureus [16] = experiment: Antimicrobial activity against Staphylococcus aureus RN4220 harbouring pCM-sfgfp::fabi (promoter-sarA) measured after 24 hrs by CLSI protocol based microdilution method; assay type: functional
Staphylococcus aureus [17] = experiment: In vivo antibacterial activity against methicilin-resistant Staphylococcus aureus ATCC33591 infected in BALB/c mouse skin infection model assessed as reduction in skin lesions at 10 mg/kg administered daily for 4 days (reference value: 51.6 mm2); assay type: functional; details: time 4 day
Staphylococcus aureus [18] = experiment: In vivo antibacterial activity against methicilin-resistant Staphylococcus aureus ATCC33591 infected in BALB/c mouse skin infection model assessed as adverse effect at 5 to 20 mg/kg administered daily for 4 days; assay type: functional, organism-based; details: dose 5-20 mg/kg, time 4.0 day
[19] = molecular target: T1, Enoyl-[acyl-carrier-protein] reductase [NADPH] FabI (Staphylococcus aureus) (UniProt Q6GI75); experiment: Binding affinity to N-terminal his 6 tagged Staphylococcus aureus Fabi (1 to […] residues) expressed in Escherichia coli BL21 assessed as change in melting temperature at 80 uM incubated for 20 mins in presence of NADPH by differential scanning fluorescence assay
T1 sequence (whole entry): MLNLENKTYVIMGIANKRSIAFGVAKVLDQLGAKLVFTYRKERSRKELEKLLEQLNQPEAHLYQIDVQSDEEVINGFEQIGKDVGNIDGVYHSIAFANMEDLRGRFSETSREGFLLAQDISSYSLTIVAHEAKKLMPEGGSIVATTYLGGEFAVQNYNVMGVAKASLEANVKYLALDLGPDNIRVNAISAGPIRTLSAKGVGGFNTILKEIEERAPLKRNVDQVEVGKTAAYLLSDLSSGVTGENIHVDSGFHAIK

Staphylococcus aureus [20] = experiment: In vivo antibacterial activity against methicilin-resistant Staphylococcus aureus ATCC33591 infected in BALB/c mouse skin infection model assessed as reduction in bacterial load at 10 mg/kg administered daily for 4 days; assay type: functional; details: time 4 day
Cell membrane = experiment: Induction of cell membrane damage in methicillin-resistant Staphylococcus aureus ATCC33591 assessed as appearance of inward wrinkling in cell surface at 1 times MIC measured after 30 mins by TEM analysis; assay type: cell membranes
[21] = AUC (0 to t) in female Sprague-Dawley rat at 5 mg/kg, iv measured upto 24 hrs by LC-MS analysis; assay type: ADME, organism-based; details: in vivo
Staphylococcus aureus [22] = experiment: In vivo antibacterial activity against methicilin-resistant Staphylococcus aureus ATCC33591 infected in BALB/c mouse skin infection model assessed as reduction in area of injury at 20 mg/kg administered daily for 4 days by H and E staining based analysis; assay type: functional, organism-based; details: time 4.0 day
Staphylococcus aureus [23] = experiment: In vivo antibacterial activity against methicilin-resistant Staphylococcus aureus ATCC33591 infected in BALB/c mouse skin infection model assessed as reduction in bacterial load administered daily for 4 days; assay type: functional, organism-based; details: dose 5-20 mg/kg, time 4.0 day
Staphylococcus aureus [24] = experiment: In vivo antibacterial activity against methicilin-resistant Staphylococcus aureus ATCC33591 infected in BALB/c mouse skin infection model assessed as alleviation of skin lesions at 10 mg/kg administered daily for 4 days by H and E staining based analysis; assay type: functional, organism-based; details: time 4.0 day

With Cc1c(Br)cccc1N1CC(c2nc3ccccc3n2C)CC1=O (configuration not stated) the Activity [1] was “Non-Toxic”, the Activity (Staphylococcus aureus [2]) was 20.9 mm2 and the “log(activity)” value (Staphylococcus aureus [3]) was 4.9. For the same compound, the Activity (Staphylococcus aureus [4]) was “Active”, the Activity (Staphylococcus aureus [5]) was “Active” and the Activity [6] was “Non-Toxic”. For the same compound, the Activity (Staphylococcus aureus [7]) was 31.1 mm2, the Activity (Staphylococcus aureus [8]) was 13 mm2 and the Activity (Staphylococcus aureus [9]) was “Active”. For the same compound, the MIC (Staphylococcus aureus [10]) was 1 mg/L (≈ 2.6 µM), the “log(activity)” value (Staphylococcus aureus [11]) was -6.2 and the “log(activity)” value (Staphylococcus aureus [12]) was -1.8. The Activity [13] was “Non-Toxic”, the Activity (Staphylococcus aureus [14]) was “Active” and the Activity (Staphylococcus aureus [15]) was “inactive”. For the same compound, the MIC (Staphylococcus aureus [16]) was > 32 mg/L, the Activity (Staphylococcus aureus [17]) was 27.5 mm2 and the Activity (Staphylococcus aureus [18]) was “inactive”. The ΔTm [19] was 11.8 °C, the “log(activity)” value (Staphylococcus aureus [20]) was -4.5 and the Activity (Cell membrane) was “Active”. For the same compound, the AUCt [21] was 3.2388 µg·h/mL, the Activity (Staphylococcus aureus [22]) was “Active” and the Activity (Staphylococcus aureus [23]) was “Dose-Dependent Effect”. The Activity (Staphylococcus aureus [24]) was “Active”.

For COc1c(Br)cccc1N1CC(c2nc3ccccc3n2C)CC1=O (configuration not stated), the Activity [1] was “Non-Toxic”, the Activity [6] was “Non-Toxic” and the MIC (Staphylococcus aureus [10]) was 2 mg/L (≈ 5 µM). For the same compound, the Activity [13] was “Non-Toxic”, the MIC (Staphylococcus aureus [16]) was > 32 mg/L and the Activity (Cell membrane) was “Active”. It also gave an AUCt [21] of 2.2644 µg·h/mL.
